The target of experiment [1] is PD-1/PD-L1 (Homo sapiens, UniProt Q9NZQ7). The experiment is described as follows: PD-1/PD-L1 biochemical protein-protein interaction assay (ALPHA). The class given is binding. As to conditions: 0.3 nM His tagged PD-L1, 2.5 nM biotinylated Fc-PD-1, 60 minutes at 25° C., read-out: IC50 PD-L1-PD-1 Alpha IC50-mono PD-L1-fcP-D1. The method, boiled down: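 Compounds are tested for blocking the PD-1/PD-L1 extracellular-domain interaction using an ALPHA bead assay, in which inhibition lowers the luminescent signal. Reactions run 60 min at 25° C with 0.3 nM His-PD-L1 and 2.5 nM biotinylated Fc-PD-1. IC50 values come from four-parameter fits.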

Experiment [2] concerns the target T1, PD-1/PD-L1 interaction (Homo sapiens, UniProt Q9NZQ7).
T1 construct: expressed in transfected cells; host or cells: CHO cells (aAPC-PD-L1) co-cultured with Jurkat cells overexpressing PD-1 and an NFAT-luciferase reporter
Put plainly: PD-1/PD-L1 NFAT reporter co-culture assay. The class given is cell-based. The following applies: Jurkat PD-1 NFAT-luciferase cells co-cultured with aAPC-PD-L1 CHO cells, 6 hrs at 37° C.; read-out: EC50 NFAT Luciferase. The essentials: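 First, CHO cells displaying anti-CD3 antibody and PD-L1 were plated overnight. Next, compound-treated PD-1 Jurkat NFAT-luciferase reporter cells in 2% FBS RPMI were added for 6 h at 37 °C. Finally, ONE-Glo luminescence was read and EC50 values fitted with a four-parameter equation.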

Experiment [3] has as its target T2, PD-L1 (Homo sapiens, UniProt Q9NZQ7).
T2 construct: determine if they can specifically dimerize the extracellular domains of PD-L1
The experiment is described as follows: PD-L1/PD-L1 dimerization biochemical protein-protein interaction assay (ALPHA). The class given is binding. As to conditions: compound-induced PD-L1 dimerization, head prints '1 nM' (0.5 nM His-tagged PD-L1 and 0.5 nM FLAG-tagged PD-L1), read-out: AC50 PDL1 Dimer Alpha 1 nM. The method, boiled down: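 ALPHA proximity assay of compound-induced dimerization of 0.5 nM His-tagged and 0.5 nM FLAG-tagged PD-L1 extracellular domains in Hepes pH 7.4 buffer, 2 h at 25 °C. Anti-His acceptor then anti-FLAG donor beads, 60 min each; AC50 from four-parameter fit.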

Sequence of PD-1/PD-L1 (Q9NZQ7 19-238 limits assumed): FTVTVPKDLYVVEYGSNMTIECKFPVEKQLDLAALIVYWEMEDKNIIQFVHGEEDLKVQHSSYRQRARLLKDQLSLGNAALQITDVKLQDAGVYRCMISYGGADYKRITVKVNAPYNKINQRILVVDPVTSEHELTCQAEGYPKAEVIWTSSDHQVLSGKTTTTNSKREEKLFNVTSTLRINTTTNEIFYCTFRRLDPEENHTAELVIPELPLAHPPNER
T2 sequence (Q9NZQ7 19-238 limits assumed): as above
T2 sequence (Q9NZQ7 19-238 limits assumed): as above
T1 sequence (Q9NZQ7 19-290): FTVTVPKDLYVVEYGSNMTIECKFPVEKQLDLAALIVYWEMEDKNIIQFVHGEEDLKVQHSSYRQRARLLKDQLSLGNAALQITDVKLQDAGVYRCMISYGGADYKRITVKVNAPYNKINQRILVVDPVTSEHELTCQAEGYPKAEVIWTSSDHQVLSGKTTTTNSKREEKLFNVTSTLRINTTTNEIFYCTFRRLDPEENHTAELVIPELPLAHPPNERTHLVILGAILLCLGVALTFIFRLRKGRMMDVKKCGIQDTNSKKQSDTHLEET

As for `COc1nc(-c2cccc(-c3cccc(COc4nc(OC)c(CN5CC6(CNC(=O)C6)C5)cc4Cl)c3Cl)c2Cl)ccc1CNC[C@@H]1CCC(=O)N1` [Example 430], the IC50 in experiment [1] stood at 2.06 nM. Further, the EC50 in experiment [2] was 268 nM. For the same compound, the AC50 in experiment [3] came out at 290 nM.
In the case of `COc1nc(OCc2cccc(-c3cccc(-c4ccc(CNC[C@@H]5CCC(=O)N5)cc4)c3Cl)c2Cl)c(Br)cc1CNC[C@@H]1CCC(=O)N1` [Example 431], the IC50 in experiment [1] was determined as 1.32 nM. Also, the EC50 in experiment [2] stood at 275 nM. Also, the AC50 in experiment [3] was 249 nM.
Regarding `COc1nc(-c2cccc(-c3cccc(COc4nc(OC)c(CNC[C@H]5CCC(=O)N5)cc4Cl)c3Cl)c2Cl)ccc1CN1CC2(CCC(=O)N2)C1` [Example 432], the IC50 in experiment [1] worked out at 1.52 nM. Also, the EC50 in experiment [2] stood at 289 nM. The AC50 in experiment [3] is 539 nM.
As for `Cc1c(COc2cc(OCc3cncc(C#N)c3)c(CNC[C@@H](O)CC(=O)O)cc2Cl)cccc1-c1cccc(-c2ccc(CNC[C@@H](O)CC(=O)O)c(OCC#N)c2)c1C` [Example 433], in experiment [1], the IC50 amounted to 0.08 nM. For the same compound, the EC50 in experiment [2] stood at 290 nM. Moreover, the AC50 in experiment [3] came to 167 nM.
On to `COc1nc(-c2cccc(-c3cccc(NC(=O)c4ccc(C5=NCCN5)cn4)c3C)c2Cl)ccc1C1=NCCN1` [Example 434], for which, in experiment [1], the IC50 worked out at 0.077 nM. Further, the EC50 in experiment [2] turned out to be 332 nM. For the same compound, the AC50 in experiment [3] turned out to be 106 nM.
As for `COc1nc(OCc2cccc(-c3cccc(-c4ccc5c(c4)C[C@@H](N)C5)c3Cl)c2Cl)c(Br)cc1CN[C@@](C)(CO)C(=O)O` [Example 435], the IC50 in experiment [1] came to 0.234 nM. Also, in experiment [2], the EC50 came out at 316 nM. The AC50 in experiment [3] stood at 86.2 nM.
For `CNC(=O)COc1cc(-c2cccc(-c3cccc(COc4cc(OCc5cncc(C#N)c5)c(CNC[C@@H](O)CC(=O)O)cc4Cl)c3C)c2C)ccc1C1=NCCN1` [Example 436] the same measures were 0.064 nM, 544 nM and 77.8 nM.
On to `Cc1c(COc2cc(OCc3cncc(C#N)c3)c(CNC[C@@H](O)CC(=O)O)cc2Cl)cccc1-c1cccc(-c2ccc3c(CNC[C@H]4CCC(=O)N4)ccnc3c2)c1C` [Example 437], for which the IC50 in experiment [1] is 1.61 nM. The EC50 in experiment [2] was 476 nM. For the same compound, the AC50 in experiment [3] was 477 nM.
In the same order, the values of `Cc1c(COc2cc(OCc3cncc(C#N)c3)c(CNC[C@@H](O)CC(=O)O)cc2Cl)cccc1-c1cccc(Nc2nccc3cc(CNCCO)cnc23)c1C` [Example 438] are 0.476 nM, 222 nM and 168 nM.
In the same order, the values of `Cc1c(COc2cc(OCc3cncc(C#N)c3)c(CNC[C@@H](O)CC(=O)O)cc2Cl)cccc1-c1cccc(-c2ccc3c(c2)CC(NCC2CCC(=O)N2)C3)c1C` (stereo partly drawn) [Example 439] are 0.376 nM, 270 nM and 154 nM.
In the case of `COc1ccc(-c2cccc(-c3cccc(COc4cc(OCc5cncc(C#N)c5)c(CN[C@@](C)(CO)C(=O)O)cc4Cl)c3C)c2C)cc1CN` [Example 440], in experiment [1], the IC50 is 0.115 nM. Moreover, the EC50 in experiment [2] is 251 nM. Moreover, in experiment [3], the AC50 was 113 nM.
For `Cc1c(COc2cc(OCc3cncc(C#N)c3)c(CN[C@@](C)(CO)C(=O)O)cc2Cl)cccc1-c1cccc(-c2ccc(OCCN3CCC4(CC3)CC(=O)N4)cc2)c1C` [Example 441], the IC50 in experiment [1] was determined as 0.212 nM. The EC50 in experiment [2] was 260 nM. In addition, the AC50 in experiment [3] amounted to 301 nM.
Turning to `Cc1c(COc2cc(OCc3cncc(C#N)c3)c(CNC[C@@H](O)CC(=O)O)cc2Cl)cccc1-c1cccc(-c2ccc3c(c2)CC(N2CC(C)(O)C2)C3)c1C` (stereo partly drawn) [Example 442], in experiment [1], the IC50 amounted to 0.697 nM. Besides, in experiment [2], the EC50 stood at 930 nM. Further, in experiment [3], the AC50 is 328 nM.
On to `Cc1c(COc2cc(OCc3cncc(C#N)c3)c(CNC(C)(CO)C(=O)O)cc2Cl)cccc1-c1cccc(-c2ccc(CN3CCC4(CC3)CNC4=O)cc2)c1C` (stereo not drawn) [Example 443], for which the IC50 in experiment [1] was 0.064 nM. In experiment [2], the EC50 was found to be 276 nM. Moreover, the AC50 in experiment [3] was determined as 154 nM.
In the same order, the values of `Cc1c(COc2cc(OCc3cncc(C#N)c3)c(CNC(C)(CO)C(=O)O)cc2Cl)cccc1-c1cccc(-c2ccc(CN3CCC4(CNC(=O)C4)C3)cc2)c1C` (stereo not drawn) [Example 444] are 0.064 nM, 296 nM and 133 nM.
Consider `Cc1c(COc2cc(OCc3cncc(C#N)c3)c(CN[C@@](C)(CO)C(=O)O)cc2Cl)cccc1-c1cccc(-c2ccc(O[C@@H]3CCNC[C@H]3F)cc2)c1Cl` [Example 445], for which the IC50 in experiment [1] came to 0.719 nM. For the same compound, in experiment [2], the EC50 turned out to be 1490 nM. The AC50 in experiment [3] was 266 nM.
Take `Cc1c(COc2cc(OCc3cncc(C#N)c3)c(CNC[C@@H](O)CC(=O)O)cc2Cl)cc(F)cc1-c1cccc(-c2ccc(OCCN3CC[C@@H](O)C3)cc2)c1C` [Example 446]: the IC50 in experiment [1] stood at 0.453 nM. Further, in experiment [2], the EC50 is 315 nM. Moreover, the AC50 in experiment [3] stood at 458 nM.
For `Cc1c(COc2cc(OCc3cncc(C#N)c3)c(CNC[C@@H](O)CC(=O)O)cc2Cl)cccc1-c1cccc(-c2ccc3c(c2)CC(=O)N3CCN(C)C)c1C` [Example 448], in experiment [1], the IC50 amounted to 0.618 nM. In addition, in experiment [2], the EC50 is 1010 nM. For the same compound, the AC50 in experiment [3] came to 903 nM.
For `Cc1c(COc2cc(OCc3cncc(C#N)c3)c(CNC[C@@H](O)CC(=O)O)cc2Cl)cccc1-c1cccc(-n2cc(CN3CCCC3)nn2)c1C` [Example 449], the half-inhibitory concentration (IC50) in experiment [1] was determined as 0.653 nM. Further, in experiment [2], the EC50 was determined as 2570 nM. Further, in experiment [3], the AC50 was 1490 nM.
As to `Cc1c(COc2cc(OCc3cncc(C#N)c3)c(CNCCO)cc2Cl)cccc1-c1cccc(-c2ccc(CN(C)C)cc2)c1Br` [Example 450], the IC50 in experiment [1] came out at 1.56 nM. Besides, in experiment [2], the 50% effective concentration (EC50) was 277 nM. In experiment [3], the AC50 was determined as 110 nM.
Take `Cc1c(COc2cc(OCc3cncc(C#N)c3)c(CNC(C)(CO)C(=O)O)cc2Cl)cccc1-c1cccc(-c2ccc(CN3CC4(CNC4)C3)cc2)c1C` (stereo not drawn) [Example 451]: in experiment [1], the IC50 came to 0.104 nM. Further, the EC50 in experiment [2] was determined as 472 nM. Also, in experiment [3], the AC50 was found to be 105 nM.
Take `Cc1c(COc2cc(OCc3cncc(C#N)c3)c(CNC[C@@H](O)CC(=O)O)cc2Cl)cccc1-c1cccc(-c2cnc3c(CNC[C@@H](O)CC(=O)O)cccc3c2)c1C` [Example 452]: in experiment [1], the IC50 worked out at 0.076 nM. Also, the EC50 in experiment [2] worked out at 253 nM. Also, the AC50 in experiment [3] came out at 144 nM.
For the compound `Cc1c(COc2cc(OCc3cncc(C#N)c3)c(CN[C@@](C)(CO)C(=O)O)cc2Cl)cccc1-c1cccc(-c2nnc(CCN3CC[C@@H](O)C3)o2)c1C` [Example 453], in experiment [1], the IC50 is 0.111 nM. Besides, the EC50 in experiment [2] came to 895 nM. For the same compound, the AC50 in experiment [3] was 326 nM.
As for `Cc1c(COc2cc(OCc3cncc(C#N)c3)c(CN3CC[C@@H](O)C3)cc2Cl)cccc1-c1cccc(-c2ncc(CN3CC[C@@H](O)C3)cn2)c1C` [Example 454], the IC50 in experiment [1] is 1.01 nM. Further, the EC50 in experiment [2] stood at 953 nM. Besides, the AC50 in experiment [3] was found to be 943 nM.
For `Cc1c(COc2cc(OCc3cncc(C#N)c3)c(CN[C@@](C)(CO)C(=O)O)cc2Cl)cccc1-c1cccc(-c2ncc(CN3CC[C@@H](O)C3)cn2)c1C` [Example 455] the same measures were 0.172 nM, 1540 nM and 686 nM.
For the compound `Cc1c(COc2cc(OCc3cncc(C#N)c3)c(CNC[C@@H](O)CC(=O)O)cc2Cl)cccc1-c1cccc(-c2ccc(OCCNCCO)c(C(N)=O)c2)c1C` [Example 456], the IC50 in experiment [1] was 0.269 nM. Further, the EC50 in experiment [2] turned out to be 1230 nM. Besides, in experiment [3], the AC50 was 182 nM.

The values above are taken from patent US12590062B2, “PD-1/PD-L1 inhibitors” (Gilead Sciences, Inc., priority 2017, dated 2026).
